Measurements as given in the NIST ThermoML archive (doi:10.1021/acs.jced.6b00786).

Legend:
[1] = 101 kPa, Liquid, Vibrating tube method
[2] = xn = mol fraction of the nth substance listed; conditions: 101 kPa, Liquid, Vibrating tube method, x2 = 0

O [water]
[1]
Conditions | mass density [kg/m3]
274.15 K | 999.899
275.15 K | 999.94
276.15 K | 999.964
277.15 K | 999.972
278.15 K | 999.964
279.15 K | 999.94
280.15 K | 999.901
281.15 K | 999.848
282.15 K | 999.781
283.15 K | 999.699
323.15 K | 988.03
333.15 K | 983.191

O [water] + NC=O
[2]
Conditions | mass density [kg/m3]
274.15 K | 999.899
275.15 K | 999.94
276.15 K | 999.964
277.15 K | 999.972
278.15 K | 999.964
279.15 K | 999.94
280.15 K | 999.901
281.15 K | 999.848
282.15 K | 999.781
283.15 K | 999.699
323.15 K | 988.03
333.15 K | 983.191

NC=O [formamide]
[1]
Conditions | mass density [kg/m3]
278.15 K | 1146.62
288.15 K | 1138.17
298.15 K | 1129.73
308.15 K | 1121.22
323.15 K | 1108.46
333.15 K | 1099.88
